We go through one sequence from patent US12404303B2, “Polypeptide and use thereof” (NANJING ANJI BIOLOGICAL TECHNOLOGY CO., LTD., priority 2019, dated 2025).

For experiment [1], the system named is SD rats with bleomycin-induced pulmonary fibrosis. Put plainly: Bleomycin-induced pulmonary fibrosis animal model. The format is in vivo. To be noted: bleomycin 5 mg/kg intratracheal, polypeptides 7.5 mg/kg subcutaneous twice a day, positive drug 25 mg/kg intragastric once a day, 14 days. The protocol: SD rats were anesthetized by intraperitoneal injection of 1 mL/100 g 4% chloral hydrate. After anesthesia, the rats were fixed and their necks were disinfected by using cotton with 75% alcohol. The skin of the rat neck was longitudinally cut with scissors, and the fascia and muscle were longitudinally bluntly torn with tweezers to expose the trachea. A syringe was inserted into the trachea to inject 5 mg/kg bleomycin, while a blank group was injected with an equal amount of normal saline. Then a rat plate was quickly erected and rotated, the rats' breathing was observed, the neck wound was sterilized after rotation and was sewn, and an amoxicillin anti-inflammatory drug was sprinkled on the suture. After the operation, the rats were put back into a dry and clean cage for resting, waiting was performed for awakening. The rats were awakened after about 1-2 hours, and then fed normally. On the 7th day after modeling, modeling group animals randomly fell into a model group, a Nintedanib positive drug group, polypeptide I, II, III and IV dosage groups, and a normal control group, and the groups were administered separately for an administration cycle of 14 days. Living situations of rats were observed every day and their weights were weighed.

The test system of another experiment is LX-2 cells. Put plainly: Proliferation of LX-2 cells induced by TGF-β1 (MTT, in vitro hepatic fibrosis model). The experiment is classed as cell-based. Particulars: polypeptide 1 μmol/L, TGF-β1 10 ng/mL, 48 hours. The procedure:
LX-2 cells were cultured in 1640 medium containing 10% FBS, and cultured in an incubator with 5% CO2 at 37° C. The medium was replaced every two days, and subcultured according to the cell density. The LX-2 cells in a logarithmic growth phase were digested with 0.25% pancreatin to make cell suspension. The density of the cells was adjusted to 4×10^5 cells/mL, and the cells were inoculated into 96-well plates with 100 μL per well and cultured overnight. On the second day, TGF-β1 was added to induce the proliferation and activation of the LX-2 cells, and the polypeptide drugs were administrated at 1 μmol/L. TGF-β1 (10 ng/mL) was added to each group except the blank group. The cells were cultured in the incubator for 48 hours, and then 10 μL of MTT was added to each well. The MTT was removed after 4 hours, and 150 μL of DMSO was added for reaction for 5 min. An OD value was measured by a microplate reader at 570 nm.

The subject of experiment [2] is SD rats with renal fibrosis. Put plainly: Renal fibrosis animal model (ureter ligation), TGF-β1 in serum. The experiment is classed as in vivo. Particulars: 7.5 mg/kg subcutaneous twice a day, 14 days, vs model group; FIG. 4. The procedure:
A renal fibrosis animal model was established. SD rats were anesthetized with 4% chloral hydrate, injected with 1 mL/100 g intraperitoneally, fixed to an operation board, and sterilized in an operation area for later use. […] Muscular layers and abdominal walls were sewed layer by layer, the suture was disinfected with alcohol. After SD rats woke up, the rats were put into a cage for feeding. In the blank group, ureter was not ligated, and other steps were the same. Then, the animals fell into a blank group, a model group, and polypeptide administration groups, and the administration was started on the second day after the operation, twice a day for 14 days. After administration for 14 days, blood was taken and supernatant was taken to detect the content of TGF-β1 in serum. [table]

Experiment [3] concerns cardiac fibroblasts of rats. Put plainly: Proliferation of cardiac fibroblasts of rats (MTT, in vitro myocardial fibrosis model). To be noted: 1 μmol/L. The format is cell-based. The procedure: The inhibitory effect of a polypeptide on cardiac fibroblasts of rats was detected by MTT assay. Cells were cultured in a DMEM medium containing 10% of FBS, the cytoplasm was made into 1×10^5/mL cell suspension, and 100 μL per well was inoculated into a 96-well plate. After the cells adhered to the wall, the medium was replaced with a serum-free DMEM medium, and the serum-free medium was discarded after 24 hours. The cells were cultured with different polypeptides of 1 μmol/L, and 5 multiple wells were set for each concentration. After 12, 24 and 48 hours separately, 10 μL of MTT was added to each well. After 4 hours, MTT was sucked out, and 150 μL of DMSO was added to each well. After reaction for 5 min, an OD value was measured at 570 nm by a microplate reader.

In another experiment the test system is myelofibrosis model mice. Put plainly: Myelofibrosis model induced by rh EPO. The experiment is classed as in vivo, Kunming mice. More on the design: WBC / Hb / MCV / RDW: unit not given here. Particulars: 10 mg/kg subcutaneous twice a day, 28 days. The procedure:
There were 10 mice in each group. The normal control group was injected with normal saline (0.3 mL for each mouse), and the remaining groups were injected with rh EPO (0.1 unit/gram, body weight, 0.3 mL for each mouse) intraperitoneally every day. After induction for two days, drug therapy was started, subcutaneous injection was given twice a day, and after continuous administration for 28 days, the mouse heart was punctured for blood extraction, some blood was used for peripheral blood analysis, some blood was centrifuged, and the supernatant was taken to measure the content of TGF-β1 in the serum of mice. [table]

For another experiment, the system named is skin fibrosis model mice. Put plainly: Skin fibrosis model induced by bleomycin, HYP in skin tissue. The format is in vivo, C57/BL black mice. Particulars: skin tissue of the mouse back; 10 mg/kg subcutaneous twice a day, 28 days, vs model group; FIG. 6. The procedure:
Bleomycin (10 μg/mL) was injected subcutaneously every day for 28 days to form skin fibrosis. During the modeling period, the administration groups were given polypeptide drugs every day for treatment, with 10 mice in each group. After modeling, the mice were killed on the next day, and the skin tissue of the mouse back was taken to detect the content of HYP in the skin tissue. [table]

The test system of a further experiment is streptococcus pneumoniae. Put plainly: Mouse pneumonia model, bacterial pneumonia. The format is in vivo, BALB/C mice. To be noted: average values±standard deviation. The text has this:
(§1) A mouse pneumonia model was successfully established by using a nasal drip method. BALB/C mice with a body weight of 18-24 g were selected, and then anesthetized with ether on day 0, day 1 and day 2, respectively, prepared streptococcus pneumoniae bacteria solution, adenovirus concentrated solution, mycoplasma pneumoniae, chlamydia pneumoniae, protozoa and pneumonia fungi were slowly dropped into the nasal cavity of the mice, so that the bacteria solutions entered the trachea and bronchi, and the bacteria solutions were prevented from flowing into the esophagus during the operation to avoid inactivation of the bacteria solutions, so that the mouse pneumonia model was established. After the model was successfully established, the polypeptide according to the present disclosure was administered, as shown in FIG. 7 and Table 9. […] The experimental results are represented on the basis of average values±standard deviation.

The next experiment has as its system adenovirus. Put plainly: Mouse pneumonia model, viral pneumonia. Particulars: average values±standard deviation. The format is in vivo, BALB/C mice.
Source text: as §1

A further experiment concerns mycoplasma pneumoniae. Put plainly: Mouse pneumonia model, mycoplasma pneumonia. The format is in vivo, BALB/C mice. To be noted: average values±standard deviation.
Source text: as §1

For the next experiment, the system named is chlamydia pneumoniae. Put plainly: Mouse pneumonia model, chlamydia pneumonia. The experiment is classed as in vivo, BALB/C mice. To be noted: average values±standard deviation.
Source text: as §1

The subject of another experiment is protozoa. Put plainly: Mouse pneumonia model, protozoal pneumonia. To be noted: average values±standard deviation. The format is in vivo, BALB/C mice.
Source text: as §1

In the next experiment the test system is pneumonia fungi. Put plainly: Mouse pneumonia model, fungal pneumonia. The experiment is classed as in vivo, BALB/C mice. To be noted: average values±standard deviation.
Source text: as §1

For another experiment, the system named is pulmonary infections. Put plainly: Mouse pneumonia model, pneumonia caused by pulmonary infections. The format is in vivo, BALB/C mice. Particulars: average values±standard deviation.
Source text: as §1

No end group written: not given here.

As to RGADRAGGGGPRCWRGE [Polypeptide I], in experiment [1], the “Survival rate (%)” value came to 78.6%. The “inhibition of proliferation and activation of LX-2 cells, difference from model group” value in the experiment with LX-2 cells is “significantly different from the model group (*P<0.05)”. In addition, the OD value with LX-2 cells (MTT, 570 nm) is recorded as 0.66 ± 0.02. Moreover, the “content of TGF-β1 in serum” value in experiment [2] is “highly significantly different from the model group (**P<0.01)”. Moreover, the “Optical density values, 12 hours” value in experiment [3] (12 hours, MTT, 570 nm) was 0.326 ± 0.006. Moreover, the “Optical density values, 24 hours” value in experiment [3] (24 hours, MTT, 570 nm) is given as 0.392 ± 0.008. Besides, the “Optical density values, 48 hours” value in [3] (48 hours, MTT, 570 nm) is given as 0.580 ± 0.012. For the same sequence, the “inhibition of the proliferation of cardiac fibroblasts of rats” value in experiment [3] (at 24 hours and 48 hours) is “could inhibit the proliferation”. In the experiment on myelofibrosis model mice (mouse serum, vs model group, FIG. 5), the “content of TGF-β1 in serum” value is listed as “highly significantly different from the model group (**P<0.01)”. Also, in the experiment on myelofibrosis model mice (peripheral blood), the Hb came out at 143 ± 23, the MCV is 52 ± 4, the RDW is given as 31 ± 2 and the WBC is reported as 5.97 ± 1.76. Also, the “expression of HYP in the skin tissue” value in the experiment on skin fibrosis model mice is reported as “highly significantly different from the model group (***P<0.001)”. Also, in the experiment with streptococcus pneumoniae, the “Inhibitory effect on pulmonary infections, Bacterial pneumonia” value is recorded as 43.83 ± 7.59. Moreover, the “Inhibitory effect on pulmonary infections, Viral pneumonia” value with adenovirus is recorded as 58.00 ± 6.84. Further, the “Inhibitory effect on pulmonary infections, Mycoplasma pneumonia” value in the experiment with mycoplasma pneumoniae is on record as 41.48 ± 5.55. In addition, in the experiment on chlamydia pneumoniae, the “Inhibitory effect on pulmonary infections, Chlamydia pneumonia” value was 45.18 ± 7.46. Also, the “Inhibitory effect on pulmonary infections, Protozoal pneumonia” value with protozoa was found to be 48.16 ± 5.46. Besides, in the experiment on pneumonia fungi, the “Inhibitory effect on pulmonary infections, Fungal pneumonia” value is on record as 45.65 ± 9.68. The “Inhibitory effect on pulmonary infections, Pneumonia caused by pulmonary infections” value in the experiment with pulmonary infections is given as 52.47 ± 7.88.
